According to patent US9617302B2 (priority 2011, dated 2017):
Several values for one entry are separate records, joined by “and”; a condition that tells them apart may be missing. Equal values may be shown once. Entries after “also recorded” stand apart in the source; their conditions may differ. No end group written: not given here.

Key:
[1] = test system: platelet-rich thrombus formation in irradiated mesenteric venules; experiment: Fluorescein sodium-induced platelet thrombus formation in mesenteric venules; assay type: in vivo, mice
Tail bleeding time = assay type: in vivo, mice; conditions: 5 min after injection
Description: Bleeding time was measured by a minor modified method described by Dejana et al (Dejana E, Villa S, de Gaetano G. Bleeding time in rats: a comparison of different experimental conditions. Thrombosis and haemostasis 1982 Aug. 24; 48(1):108-11). […] A sharp cut of 2 mm from tail tip of mouse was made 5 min after injection. The tail was immediately placed into a tube filled with saline, kept at 37° C. for measuring bleeding time.

washed platelets = assay type: cell-based, human; conditions: for IC50: read-out: IC50, inhibition of the collagen-induced aggregation
[2] = Platelet count of whole blood after administration; assay type: in vivo, mice; conditions: 30 mg/kg, 5 min after administration; control 11.41±0.19
Description: Male ICR mice (25-30 g) were intravenously (IV) injected with PBS or hexapeptide (30 mg/kg), and then blood was collected at 5 min after injection. The platelet number of the whole blood sample was counted by a Sysmex cell counter (Chuo-Ku Kobe, Japan). PRP was prepared immediately by centrifugation at 200 g for 5 min. Platelet counts in PRP were adjusted to 3×10^8/ml and aggregation assay was performed in an aggregometer.

GPVI = GPVI (Homo sapiens, UniProt Q9HCN6); assay type: binding
[3] = test system: [Ca2+]i elevation in platelets; experiment: Intracellular Ca2+ level in Fura-2-loaded platelets stimulated with collagen; assay type: cell-based; conditions: Fura-2/AM; various concentrations
Description: The concentration of intracellular free Ca^2+ was determined using a fluorescent probe, Fura-2/AM, according to the method of Pollock and Rink (Pollock W K, Rink T J. Thrombin and ionomycin can raise platelet cytosolic Ca2+ to micromolar levels by discharge of internal Ca2+ stores: studies using fura-2. Biochemical and biophysical research communications 1986 Aug. 29; 139(1):308-14). Fura-2/AM—loaded platelets were prepared as the washed platelets except washing with Ca^2+-free Tyrode solution and allowed platelets to uptake Fura-2/AM (5 μM) for 30 min in the first wash. The intracellular Ca^2+ level of Fura-2-loaded platelets (3×10^8/ml) in the presence of 1 mM of Ca^2+ was measured by the fluorescence change (excitation at 339 nm, emission at 500 nm) with a Hitachi fluorescence spectrophotometer.

[4] = test system: platelet-rich plasma (PRP) prepared from mice; experiment: Ex vivo platelet aggregation study (PRP of treated mice, collagen); assay type: in vivo; conditions: 10 mg/kg; collagen 3 μg/ml
Description: […] The platelet number of the whole blood sample was counted by a Sysmex cell counter (Chuo-Ku Kobe, Japan). PRP was prepared immediately by centrifugation at 200 g for 5 min. Platelet counts in PRP were adjusted to 3×10^8/ml and aggregation assay was performed in an aggregometer.

GPVI, sequence (Q9HCN6 21-339): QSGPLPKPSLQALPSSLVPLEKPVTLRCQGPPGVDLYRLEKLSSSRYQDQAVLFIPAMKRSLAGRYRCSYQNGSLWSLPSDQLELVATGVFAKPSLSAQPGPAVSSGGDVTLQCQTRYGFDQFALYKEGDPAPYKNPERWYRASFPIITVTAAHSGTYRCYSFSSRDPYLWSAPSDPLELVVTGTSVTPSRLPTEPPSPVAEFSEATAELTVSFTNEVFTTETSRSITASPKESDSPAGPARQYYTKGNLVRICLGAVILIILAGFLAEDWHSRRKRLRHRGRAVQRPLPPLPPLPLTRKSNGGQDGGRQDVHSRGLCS
GPVI, sequence (P30273 19-86, further chain): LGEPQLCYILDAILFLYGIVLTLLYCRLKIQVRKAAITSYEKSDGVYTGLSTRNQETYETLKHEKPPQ

Q: Which “Occlusion time” value ([1]; 250 mg/kg, control (PBS) 111.1 ± 5.1 s) does the source give for `CC(=O)Oc1ccccc1C(=O)O` [aspirin, reference compound] here?
A: 298.7 ± 29.6 s

Q: And the “Occlusion time” value ([1]; 250 mg/kg, control (PBS) 111.1 ± 5.1 s, listed as Aspirin)?
A: 298.7 ± 29.6 s

Q: What about the Bleeding time (Tail bleeding time; 250 mg/kg IV) of the same compound?
A: 8.20 ± 0.91 min

Q: With `CCCCS(=O)(=O)N[C@@H](Cc1ccc(OCCCCC2CCNCC2)cc1)C(=O)O` [tirofiban] as the compound, how does the Bleeding time (Tail bleeding time; 0.4 mg/kg IV) read?
A: 4.20 ± 1.20 min

Q: Which “IC50, inhibition of the collagen-induced aggregation” value (washed platelets) does the source give for C(dK)WM(dN)V [d-form Tro-α6] here?
A: (IC50: 6.82 ± 3.34 μg/ml

Q: What about the “Inhibition of the collagen-induced aggregation (%)” value (from here on “Inhibition … (%)”) (washed platelets) of the same compound?
A: 89.44 ± 6.49%

Q: And the IC50 (washed platelets)?
A: 8.75 µM

Q: With CKAMNV [Tro-α6 W116A] as the compound, how does the “Inhibition … (%)” value (washed platelets) read?
A: 12.28 ± 2.40%

Q: What about the “Inhibitory activity on collagen-induced platelet aggregation (in words)” value (washed platelets) of the same compound?
A: decreased dramatically; also recorded: diminished

Q: With CKWANV [Tro-α6 M117A] as the compound, how does the “Inhibition … (%)” value (washed platelets) read?
A: 52.91 ± 15.90%

Q: With CKWMNV [Tro-α6, CKWMNV] as the compound, how does the Platelet count [2] read?
A: 11.18±0.30 ×10^8/ml

Q: For CWNKMV [Tro-α6 scramble], which “Inhibitory activity on collagen-induced platelet aggregation (in words)” value (washed platelets) is on record?
A: little effect

Q: For GFCKWMNVAC [Tro-α10], which “IC50, inhibition of the collagen-induced aggregation” value (washed platelets) is on record?
A: 93.75 ± 6.25 (IC50: 35.17 ± 11.00

Q: And the “Inhibition … (%)” value (washed platelets)?
A: 60% and 93.75 ± 6.25 (IC50: 35.17 ± 11.00%

Q: And the IC50 (washed platelets)?
A: 30.4 µM

Q: What about the “Binding of anti-GPVI mAb (326E12) to platelets” value (GPVI) of the same compound?
A: specifically inhibited

Q: What about the “Collagen-evoked increase of [Ca2+]i” value [3] of the same compound?
A: inhibited by decapeptide in a concentration-dependent manner

Q: And the “% of inhibition, collagen-induced platelet aggregation ex vivo” value [4]?
A: 55.87 ± 10.82 (n = 11) %

Q: And the “Occlusion time” value ([1]; 10 mg/kg, control (PBS) 153.0 ± 13.5 s)?
A: 294.5 ± 25.4 s

Q: And the “Occlusion time” value ([1]; 10 mg/kg, control (PBS) 153.0 ± 13.5 s, listed as Decapeptide)?
A: 294.5 ± 25.4 s

Q: For RKWVNY [Agg-α6], which “Inhibition … (%)” value (washed platelets) is on record?
A: 21.67 ± 9.33%
